This is an account of results in BindingDB's records for doi:10.1080/14756360310001612211 (Kobe Gakuin University, 2003).

What is called IC50 is the concentration that gives 50% inhibition.

Several values for one entry are separate records, joined by “and”; a condition that tells them apart may be missing. Equal entries are not always repeated. A value given as a limit tells only on which side of the number the result lay.

This test deals with Proto-oncogene tyrosine-protein kinase Src (Gallus gallus, UniProt P00523). As to the kind of experiment: Tyrosine Kinase Assay. The conditions noted are these: 37 °C. An excerpt:
Takara Universal Tyrosine Assay Kit (Takara-bio co) was used to test the synthesized compounds. This assay kit determines the inhibition activities of inhibitors against a substrate of tyrosine kinase.
As to `CN(C)CCOC(=O)c1cc2ccccc2n1Cc1ccccc1` [Indole ester derivative, 6], the IC50 is > 500 µM and 631 µM. In the case of `CCN(CC)CCOC(=O)c1cc2ccccc2n1Cc1ccccc1` [Indole ester derivative, 7], the IC50 is > 1000 µM and 614 µM. In the case of `O=C(OCCN(n1cccc1)n1cccc1)c1cc2ccccc2n1Cc1ccccc1` [Indole ester derivative, 8] it was > 1000 µM and 215 µM. Under `CC(CN(C)C)OC(=O)c1cc2ccccc2n1Cc1ccccc1` (stereo not drawn) [Indole ester derivative, 10] stands greater than 1000 µM. As to `O=C(OCCN(N1CCCCC1)N1CCCCC1)c1cc2ccccc2n1-c1ccccc1` [Indole ester derivative, 16], the IC50 is 306 µM and > 1000 µM and 279 µM. In the case of `CN(C)CCOC(=O)c1cc2ccccc2n1-c1ccccc1` [Indole ester derivative, 17] it was greater than 1000 µM; in that of `CCN(CC)CCOC(=O)c1cc2ccccc2n1-c1ccccc1` [Indole ester derivative, 18], > 1000 µM and 817 µM; in that of `O=C(OCCN(n1cccc1)n1cccc1)c1cc2ccccc2n1-c1ccccc1` [Indole ester derivative, 19], 258 µM and > 1000 µM.

For the compound `CC(CN(C)C)OC(=O)c1cc2ccccc2n1-c1ccccc1` (stereo not drawn) [Indole ester derivative, 21], the IC50 was greater than 1000 µM. In the case of `CCN(CC)CCOC(=O)c1cc2ccccc2[nH]1` [Indole ester derivative, 23] it was greater than 1000 µM. With `O=C(OCCN(n1cccc1)n1cccc1)c1cc2ccccc2[nH]1` [Indole ester derivative, 24], inhibition was half-maximal at 21.4 µM (IC50). In the case of `CC(CN(C)C)OC(=O)c1cc2ccccc2[nH]1` (stereo not drawn) [Indole ester derivative, 26] it was greater than 500 µM. Under `O=C(OCCN(N1CCCCC1)N1CCCCC1)c1cc2ccccc2[nH]1` [Indole ester derivative, 27] stands 830 µM and > 500 µM.
